Literature values as cited in patent US20240066056A1, “Formulations of a Prophylactic Nasal Spray and Methods of Use and Manufacture Thereof” (priority 2020, published 2024).

Tests used:
[1] = cold and mild-warm water and alcohol
bacteria = conditions: after an application of povidone-iodine
SARS-CoV-2 = conditions: within 30 seconds of contact

Povidone-iodine [PVP-I]
solubility [1]: soluble in cold and mild-warm water and alcohol | duration of bactericidal action after application (bacteria): up to eight | virus killed (in vitro virucidal activity) (SARS-CoV-2): 99.99%
